Measured values: PMC4138991, “Building a Better Dynasore: The Dyngo Compounds Potently Inhibit Dynamin and Endocytosis” (Traffic (Copenhagen, Denmark), 2013)
“Also recorded” adds a separate entry of the source. Where two headings read alike, the source gives them in different places.

Legend:
[1] = test system: dynamin I SAI activity (rings); test: Self-assembly-induced (SAI) dynamin GTPase activity; assay type: biochemical, sheep; conditions: presence of Tween, 500 nM dynamin
Method: The Malachite Green colorimetric GTPase assay was as described 10. Dynamin I activity was measured in its SAI activity state or was stimulated by three different methods. As each stimulus activates dynamin to different extents, each assay required different dynamin concentrations. First, maximal dynamin activity was stimulated by sonicated PS liposomes 10. Purified dynamin I (10–20 nM, diluted in: 6 mM Tris–HCl, 20 mM NaCl and 0.01% Tween 80, pH 7.4) was incubated in 96‐well plates in GTPase buffer (5 mM Tris–HCl, 10 mM NaCl, 2 mM Mg^2+, 0.05% Tween 80, pH 7.4, 1 µg/mL leupeptin and 0.1 mM PMSF) and GTP 0.3 mM in the presence of test compound for 30 min at 37°C in a final assay volume of 150 μL. Reactions were terminated with 10 μL of 0.5 M ethylenediaminetetraacetic acid (EDTA) pH 7.4 and Malachite Green solution (40 μL: 2% w/v ammonium molybdate tetrahydrate, 0.15% w/v malachite green and 4 M HCl) was added for 5 min. Second, dynamin (20 nM) was stimulated by 10 µg/mL of taxol‐stabilized preformed bovine brain microtubules (Cytoskeleton, Inc) using the same protocol. […] Finally, dynamin (500 nM) SAI activity was measured using high concentrations of dynamin, which promote its cooperative self‐assembly into rings (but not helices) 26. […] After the Vmax and Km values were determined, the data were transformed using the Lineweaver–Burke equation, 1/v = 1/Vmax + (Km/Vmax)(1/[S]).

cultured CGNs = test: Fluorescent dextran uptake (ADBE) in CGNs; assay type: cell-based, rat; conditions: 30 μM, 15 min
Method: Granule neuron cultures were prepared from the cerebella of 7‐day‐old rat pups as previously described 57. In all experiments, neurons were used between 8 and 10 days in vitro.
Uptake of tetramethyrhodamine‐dextran (40 kDa) into nerve terminals of CGNs was monitored as described previously 40. Briefly, cells were left for 10 min in incubation medium and then stimulated with a train of 800 action potentials (80 Hz for 10 seconds) in the presence of tetramethyrhodamine‐dextran (50 μM). Dyngo compound 4a (30 μM) was present for 15 min prior to and including action potential stimulation. Dextran loading was determined by the number of fluorescent puncta in a defined field of view ([…]) using a 20× air objective at 550‐nm excitation and >575‐nm emission. Threshold analysis was performed to discount regions too large to represent individual nerve terminals (diameter greater than […]). The number of dextran puncta per field for each experiment (usually 10 fields of view per experiment) was averaged and subtracted from background fluorescence. To ensure that the density of nerve terminals was consistent between fields and experimental conditions, experiments were performed on the same set of cultures.

[2] = biological target: T1, recombinant rat dynamin II (Rattus norvegicus, UniProt P39052); test: Dynamin II GTPase assay (PS-stimulated); assay type: biochemical
T1 sequence (P39052 1-870): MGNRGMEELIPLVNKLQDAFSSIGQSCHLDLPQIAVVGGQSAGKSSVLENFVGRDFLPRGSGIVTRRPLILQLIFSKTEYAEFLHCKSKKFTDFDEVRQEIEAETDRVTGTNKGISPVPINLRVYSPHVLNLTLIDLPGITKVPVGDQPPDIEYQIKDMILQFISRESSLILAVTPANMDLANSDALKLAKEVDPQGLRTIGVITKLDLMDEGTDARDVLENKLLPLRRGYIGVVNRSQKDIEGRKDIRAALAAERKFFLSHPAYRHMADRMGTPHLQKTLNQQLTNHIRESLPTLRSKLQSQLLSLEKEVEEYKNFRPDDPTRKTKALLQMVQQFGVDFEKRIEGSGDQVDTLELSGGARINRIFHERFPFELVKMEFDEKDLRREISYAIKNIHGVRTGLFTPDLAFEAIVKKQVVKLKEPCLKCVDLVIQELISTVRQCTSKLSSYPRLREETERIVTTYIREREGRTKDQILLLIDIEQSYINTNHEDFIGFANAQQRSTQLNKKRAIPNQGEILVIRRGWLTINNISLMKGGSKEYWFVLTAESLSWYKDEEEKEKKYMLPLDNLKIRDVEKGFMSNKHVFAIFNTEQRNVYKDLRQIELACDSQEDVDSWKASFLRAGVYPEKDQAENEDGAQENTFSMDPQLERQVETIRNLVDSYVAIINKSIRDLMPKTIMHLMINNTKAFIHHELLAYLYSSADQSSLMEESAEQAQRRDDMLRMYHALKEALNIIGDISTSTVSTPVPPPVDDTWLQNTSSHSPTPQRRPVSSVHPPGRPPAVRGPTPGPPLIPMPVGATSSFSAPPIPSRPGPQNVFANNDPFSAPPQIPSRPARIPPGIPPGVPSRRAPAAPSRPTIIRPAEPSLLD
Source text: Recombinant dynamin I was used only for the data in Table 2. The dynamin antibodies were from: Dynamin I—in‐house YF2 antibodies, raised in rabbits against two different synthetic peptides: dynamin I 629‐647 ([…]) and dynamin I 765–778 ([…]), used at 1/2000 dilution, as previously described 53; Dynamin II—Santa Cruz (C‐18, sc‐6400, used at 1/1000) and Dynamin III—Santa Cruz (P‐13, sc‐69472, used at 1/500 dilution).
Assay conditions were based on the dynamin I assay but contained modifications. Recombinant dynamin II was used at 50 nM, stimulated by 10 µg/mL PS. The GTPase reaction was allowed to occur for 90 min at 37°C before termination.

Calyx of Held = test: Membrane capacitance measurements at the Calyx of Held in brain slices; assay type: cell-based, mice; conditions: for SVE (decay of membrane capacitance): direct application by puffing pipette: 300 μM 4a, 800 μM dynasore
grb2-stimulated dynamin = test system: grb2-stimulated dynamin; parameters: method as in PMID 16740485; conditions: no detergent, read-out: previously estimated IC50 for dynasore; cited from earlier work

| SMILES | inhibition of SAI (self-assembly) activity [1] | maximum block of ADBE measured by dextran uptake (cultured CGNs) [%] | IC50 ([2]; Absence of Tween, DynII 50 nM, no unit in table, read-out: IC50 DynII (rec)) [µM] | IC50 ([2]; Presence of Tween, DynII 50 nM, no unit in table, read-out: IC50 DynII (rec)) [µM] | exocytosis (capacitance jump) (Calyx of Held; 300 μM 4a in puffing pipette) | SVE (decay of membrane capacitance) (Calyx of Held) | IC50 (grb2-stimulated dynamin) [µM] | IC50 ([2]; detergent removed from the assay, n = 2, read-out: IC50 full-length helical dynamin II) [µM] | effect on dynamin II ([2]; standard assay with Tween-80, up to 1.5 mM) |
| --- | --- | --- | --- | --- | --- | --- | --- | --- | --- |
| O=C(N/N=C/c1cc(O)c(O)cc1O)c1cc2ccccc2cc1O [4a, (E)-3-Hydroxy-N'-(2,4,5-trihydroxybenzylidene) -2-naphthohydrazide] | not at all inhibited; also recorded: without effect | > 80 | 2.3 ± 0.2 | 92.3 ± 10.9 | did not acutely affect exocytosis | complete blockade of SVE |  |  |  |
| O=C(N/N=C/c1ccc(O)c(O)c1)c1cc2ccccc2cc1O [Dynasore, (E)-N'-(3,4-Dihydroxybenzylidene)-3-hydroxy-2-naphthohydrazide] | did not block |  |  |  |  | inhibits SVE | ~15 | 18.1 ± 0.2 | no effect |
